In article PMC11129186, “New Improved cGMP Analogues to Target Rod Photoreceptor Degeneration” (Journal of Medicinal Chemistry, 2024):
Where “and” joins values, the source holds several entries; their conditions need not be identical. Equal entries are not always repeated. Where two headings read alike, the source gives them in different places.

Columns and labels:
PKG = tested on: PKG; parameters: method as in PMID 29531030; details: in vitro and in vivo; cited from earlier work
CNGC = tested on: CNGC; parameters: method as in PMID 29531030; details: in vitro and in vivo; cited from earlier work
[1] = tested on: photoreceptor cells of murine models of RP; parameters: method as in PMID 29531030; details: in vivo delivered; cited from earlier work
[2] = tested on: primary photoreceptor cells derived from rd1 mutant mice; test: Cell death TUNEL assay in primary photoreceptors; format: cell-based, mouse; details: for neuroprotective effect, cell death (TUNEL): 50 μM added at day 10 of differentiation, read at day 11
Excerpt: To address this possible limitation of the RP model, we tested the CN03 analogues in another RP in vitro cellular model, previously validated for the analysis of cGMP analogues.[10] This model is based on the primary cell culture and differentiation of cells derived from rd1 mutant eyes. The rd1 mouse is one of the best characterized murine models of RP. It carries a mutation in the Phosphodiesterase 6b (Pde6b) gene. Lack of PDE6 function causes high intracellular levels of cGMP in rod photoreceptor cells.[26],[9] […] CN03-Na^+, SP-CN03, and dithio-CN03 were administered to the culture of rd1 mutant cells at a concentration of 50 μM at day 10 of differentiation. The concentration of the compounds and the time of treatment were chosen based on the previously published study in which cGMP inhibitory analogues were tested in this type of primary photoreceptors.[10] Cell death was then analyzed by the TUNEL assay at day 11 of in vitro differentiation.
rd1 mutant mice were purchased from Charles River Italy. The protocol was approved by the Ethical Committee of the University of Modena and Reggio Emilia and by the Italian Ministero della Salute (150/2021-PR). Primary neurospheres were derived from the eyes of rd1 mutant mice, as previously reported.[32] Retinal stem cells in neurospheres were differentiated into photoreceptors, as previously reported.[10]rd1 mutant photoreceptor cells underwent spontaneous cell death after differentiation for 11 days. At day 10, 50 μM of either CN03-Na^+ or SP-CN03 or dithio-CN03 were added to the cells in culture and cell death was assessed 1 day later (day 11 of differentiation) by TUNEL assay (see above for detailed procedure).

[3] = tested on: 661W-A11 cells stressed with zaprinast; test: Dose-response curves of cell viability (MTT) under zaprinast stress; format: cell-based, mouse; details: for EC50: read-out: EC50 of cell viability
Description: For this analysis, we used the 661W-A11 cells stressed with zaprinast and exposed them to scaling concentrations of either dithio-CN03 or SP-CN03 or CN03-Na^+. The effects were evaluated by the cell viability MTT assay (Figure 5). […] Nevertheless, CN03-Na^+ and SP-CN03 reached up to 70–80% cell viability, while dithio-CN03 could protect rod photoreceptors to almost 100% cell viability at the highest doses (Figure 5). Although dithio-CN03 was considered more hydrophobic, and its entrance in the cells could have been facilitated by this feature, the calculated EC50 was nonetheless similar to more hydrophilic analogues.
661W-A11 cells were seeded in 96-well plates at a density of 6000 cells/well, and the following day they were pretreated with scaling concentrations of either CN03-Na^+ or SP-CN03 or dithio-CN03 for 2 h and then stressed with zaprinast 200 μM in the presence of the compounds for 48 h. Cell viability was assessed by MTT assay (see above for detailed procedure). OD was measured at 570 nm. Data were plotted and EC50 calculated using GraphPad Prism version 7.

[4] = tested on: 661W-A11 cells stressed with zaprinast; test: Cell viability MTT assay in cells stressed with zaprinast; format: cell-based, mouse; details: 50 μM compound, 200 μM zaprinast for 48 h
Description: The neuroprotective activity of the newly developed compounds was then evaluated in 661W-A11 cells stressed with zaprinast. Viability was assessed by an MTT assay.
(§1) 661W-A11 cells were seeded in 96-well plates at a density of 6000 cells/well or in 24-well plates at a density of 20,000 cells/well. Twenty-four h after seeding, cells were pretreated with 50 μM of either CN03-Na^+ or CN03 or SP-CN03 or oxo-CN03 or dithio-CN03 for 2 h, followed by 200 μM zaprinast treatment for 48 h in the presence of the compounds. Control groups were treated with an equal volume of vehicle, H2O or DMSO.
661W-A11 cells were cultured on 96-well plates at a density of 6000 cells/well. After compound treatments, the culture medium was replaced with medium containing 1 mg/mL of MTT (Sigma) and cells were cultured for 90 min at 37 °C. Viability was assessed by MTT assay (see above for detailed procedure). OD was measured at 570 nm.

[5] = Aqueous solubility at room temperature (phase solubility, HPLC); format: physicochemical
Description: Physicochemical properties of dithio-CN03 were characterized and compared to CN03. […] Salt forms of CN03, for example, were prepared varying in aqueous solubility as low as 0.01 mg/mL.[12] To facilitate future development of reactive crystallizations toward other salt forms, a temperature-dependent solubility was also measured between 20 and 75 °C. The resulting solubility curve can be found in the Supporting Information (Figure S38).
The solubility of dithio-CN03 was measured at room temperature and in quadruplicate by phase solubility techniques. Saturated mixtures of the compound were prepared by adding excess starting material to 4 mL vials containing 2 mL of deionized water. They were allowed to equilibrate for 24 h using mild agitation before recording the pH. The clear solution was separated from the solids by filtration with a Cytiva Whatman Mini-Uniprep polypropylene 0.45 μm filter device and diluted to an appropriate analytical concentration where needed. The sample was then analyzed by HPLC, and the solubility was determined by integrating the area of the peak of interest against a standard curve. The solids were also analyzed by XRPD to record the crystal modification obtained.
Solubility data for dithio-CN03
Table S1: Aqueous solubility at room temperature
Sample mg / mL pH of mixture […]
(1 picture or pasted object on this page, not shown here)

[6] = Thermal analysis (DSC and TG); format: physicochemical; details: crystal modification I; scan 10 °C/min
Description: Finally, we performed thermal analyses on crystal modification I by using differential scanning calorimetry (DSC) and thermogravimetry (TG), both of which confirmed a behavior analogous to that of CN03. There were no observable melting points. Instead, there was only a sharp exothermic event on DSC at 170 °C associated with significant mass loss on TG, which we interpreted as a thermal decomposition of the compound (Figure 1B). It should be noted that decomposition peaks on DSC and TG are not indicative of physical stability (e.g., melting point, and solubility). Since the material was crystalline, it was considered to own a melting point at a higher temperature than this decomposition.
DSC analyses were carried out on a Mettler DSC822e, equipped with a Thermo Haake EK45/MT cooler. The samples were weighed into a 40 μL Al-cup, which was then closed with a pierced lid. The sample was scanned from 25 to 300 °C, with a scan rate of 10 °C/min.
TG was performed on a Mettler TGA/SDTA 851e, equipped with a Haake C50P cooler. Alternatively, thermogravimetric and DSC analyses were carried out simultaneously in a Mettler Toledo TGA/DSC 3+. The samples were weighed into a 100 μL Al-cup, and this was flushed with dry nitrogen gas during the analysis. The sample was scanned from 25 to 300 °C, with a scan rate of 10 °C/min.

661W-A11 cells = test: Toxicity assay, MTT viability of unstressed cells; format: cell-based, mouse; details: 1 μM to 1 mM, 48 h; dithio-CN03 in DMSO, compared to DMSO vehicle
Excerpt: With the aim of developing a new treatment for RP, we evaluated possible toxic effects of the cGMP analogues on a retinal cell line. The target of the treatment for RP is rod photoreceptors, the cells that die due to increased intracellular levels of cGMP during the progression of retinal degeneration. […] Furthermore, this cell line can be stressed with zaprinast, a phosphodiesterase 6 (PDE6) inhibitor, to increase intracellular cGMP and activate cell death pathways, as found in the RP mutant retina. […] A toxicity test was set up by exposing 661W-A11 cells to increasing doses of the four new TEA salts of CN03: CN03, SP-CN03, oxo-CN03, and dithio-CN03 (Figure 2). Viability of the cells was assessed by an MTT assay that measures cell metabolic activity. […]
661W-A11 cells were seeded in 96-well plates at a density of 6000 cells/well, and the following day they were treated with scaling concentrations of either CN03-Na^+, CN03, SP-CN03, oxo-CN03, or dithio-CN03 for 48 h. […] Cell viability was assessed with MTT (3-(4,5-dimethylthiazol-2-yl)-2,5-diphenyl tetrazolium bromide, Sigma). […] The crystals were shaken for 10 min to dissolve and the optical density (OD) was measured at a wavelength of 570 nm.

[7] = tested on: 661W-A11 cells stressed with zaprinast; test: Cell death TUNEL assay in cells stressed with zaprinast; format: cell-based, mouse; details: 50 μM compound, 200 μM zaprinast for 48 h
Description: Viability assay cannot discriminate between protection from cell death and possible increased proliferation induced by the treatment. To discriminate between these two responses, we analyzed cell death by the TUNEL assay that detects dying cells based on fragmented chromatin. The TUNEL assay confirmed data obtained with the MTT assay (Figure 3B,C).
as §1
661W-A11 cells were seeded in 24-well plates at a density of 20,000 cells/well. After treatments, cells were fixed with 2% paraformaldehyde for 10 min and permeabilized with 1 M Na^+ citrate and 0.1% Triton X-100 on ice for 2 min. Cells were incubated with TUNEL solution “In situ Cell Death Detection Kit” TMR Red (Roche) for 30 min at 37 °C, and cell nuclei were stained with 0.1 μg/mL 4′,6-diamidin-2-fenilindolo (DAPI). […] The quantification of percentage of dead cells was based on the ratio of TUNEL-labeled cells on the total number of cells (DAPI-labeled).

PDE6 purified enzyme = target: PDE6 purified enzyme; parameters: method as in PMID 16123402; details: cited from earlier work
[8] = saturated aqueous mixture, room temperature

O=c1c2nc(Br)n([C@@H]3O[C@@H]4CO[P@@](O)(=S)O[C@H]4[C@H]3O)c2nc2[nH]c(-c3ccccc3)cn12 [CN03, RP-8-Br-PET-cGMPS]
interference with PKG activity (PKG): interfere with PKG activity | block of Ca2+ influx through the CNGC (CNGC): block Ca^2+ influx through the CNGC | preservation of photoreceptor cells [1]: could preserve photoreceptor cells of murine models of RP

O=c1c2nc(Br)n([C@@H]3O[C@@H]4CO[P@@]([O-])(=S)O[C@H]4[C@H]3O)c2nc2[nH]c(-c3ccccc3)cn12.[Na+] [CN03-Na^+]
neuroprotective effect, cell death (TUNEL) [2]: decreased the percentage of cell death | cell viability reached at the highest doses [3]: 70–80% | EC50 ([3]; 200 μM zaprinast for 48 h, doses 1 μM to 1 mM, MTT): 16.9 µM

O=c1c2nc(Br)n([C@@H]3O[C@@H]4CO[P@](O)(=S)O[C@H]4[C@H]3O)c2nc2[nH]c(-c3ccccc3)cn12 [SP-CN03, Triethylammonium SP-8-Bromo-β-phenyl-1,N^2-ethenoguanosine-3′,5′-cyclicmonophosphorothioate]
protective effect on cell viability (MTT) [4]: increasing cell viability | neuroprotective effect, cell death (TUNEL) [2]: neuroprotective effect similar to CN03-Na^+ | toxicity to photoreceptors ([2]; 50 μM, 24 h): not toxic to photoreceptors | cell viability reached at the highest doses ([3]; 200 μM zaprinast for 48 h, MTT): 70–80% | EC50 ([3]; Mus musculus, 661W-A11, 48 h): 16 µM

CCN(CC)CC.O=c1c2nc(Br)n([C@@H]3O[C@@H]4COP(=S)(S)O[C@H]4[C@H]3O)c2nc2[nH]c(-c3ccccc3)cn12 (stereo partly drawn) [dithio-CN03, Triethylammonium 8-Bromo-β-phenyl-1,N^2-ethenoguanosine-3′,5′-cyclicmonophosphorodithioate]
solubility compared to CN03 ([5]; aqueous): lower solubility | solubility at 24 h ([5]; deionized water, pH 5.6, deionized H2O, room temperature, corresponds to crystal modification II (trihydrate), read-out: aqueous solubility): 1170 µg/mL | solubility at 24 h ([5]; deionized water, pH 5.6, deionized H2O, room temperature, read-out: aqueous solubility): 1800 µM | solubility at 24 h ([5]; deionized water, water, thermodynamic from solid, room temperature, deionized water, 24 h equilibration, read-out: aqueous solubility, single samples 1-4 (Table S1)): 1160 µg/mL | aqueous solubility, single samples 1-4 (Table S1) ([5]; room temperature, deionized water, 24 h equilibration): 1198 µg/mL and 1160 µg/mL and 1169 µg/mL | pH of mixture, Average (Table S1) [5, 8]: 5.6 | pH of mixture, single samples 1-4 (Table S1) [5, 8]: 4.7 and 5.6 and 5.9 and 6.3 | exothermic event on DSC with mass loss on TG, interpreted as thermal decomposition [6]: 170 °C | toxicity (cell viability, MTT) (661W-A11 cells): lowest toxicity | protective effect on cell viability (MTT) [4]: significantly higher protective effects compared to CN03-Na^+ | protection from cell death (TUNEL) [7]: highest neuroprotective activity | neuroprotective effect, cell death (TUNEL) [2]: significantly better neuroprotective activity | cell viability reached at the highest doses ([3]; 200 μM zaprinast for 48 h, MTT): ~100% | EC50 ([3]; Mus musculus, 661W-A11, 48 h): 20 µM

O=c1c2nc(Br)n([C@@H]3O[C@@H]4COP(=O)(O)O[C@H]4[C@H]3O)c2nc2[nH]c(-c3ccccc3)cn12 [oxo-CN03, Triethylammonium 8-Bromo-β-phenyl-1,N^2-ethenoguanosine-3′,5′-cyclicmonophosphate]
protective effect on cell viability (MTT) [4]: All CN03 compounds, except oxo-CN03, were able to improve cell viability | protection from cell death (TUNEL) [7]: failure of oxo-CN03 to protect

CCCOc1ccccc1-c1nc2nn[nH]c2c(=O)[nH]1 [zaprinast]
Ki (PDE6 purified enzyme): 0.03 µM
